# Tests used:
# SGLT2 [1] = molecular target: T1, SGLT2 (Homo sapiens, UniProt P31639); experiment: SGLT2 inhibition with varied substrate AMG concentration (Dixon / L-B plot); assay type: cell-based; conditions: for Inhibition mechanism, SGLT2: CHO-SGLT2, varied AMG concentration; for Ki: from slope of L-B plot, CHO-SGLT2
# T1 construct: expressed in transfected cells
# T1 sequence (P31639 1-672): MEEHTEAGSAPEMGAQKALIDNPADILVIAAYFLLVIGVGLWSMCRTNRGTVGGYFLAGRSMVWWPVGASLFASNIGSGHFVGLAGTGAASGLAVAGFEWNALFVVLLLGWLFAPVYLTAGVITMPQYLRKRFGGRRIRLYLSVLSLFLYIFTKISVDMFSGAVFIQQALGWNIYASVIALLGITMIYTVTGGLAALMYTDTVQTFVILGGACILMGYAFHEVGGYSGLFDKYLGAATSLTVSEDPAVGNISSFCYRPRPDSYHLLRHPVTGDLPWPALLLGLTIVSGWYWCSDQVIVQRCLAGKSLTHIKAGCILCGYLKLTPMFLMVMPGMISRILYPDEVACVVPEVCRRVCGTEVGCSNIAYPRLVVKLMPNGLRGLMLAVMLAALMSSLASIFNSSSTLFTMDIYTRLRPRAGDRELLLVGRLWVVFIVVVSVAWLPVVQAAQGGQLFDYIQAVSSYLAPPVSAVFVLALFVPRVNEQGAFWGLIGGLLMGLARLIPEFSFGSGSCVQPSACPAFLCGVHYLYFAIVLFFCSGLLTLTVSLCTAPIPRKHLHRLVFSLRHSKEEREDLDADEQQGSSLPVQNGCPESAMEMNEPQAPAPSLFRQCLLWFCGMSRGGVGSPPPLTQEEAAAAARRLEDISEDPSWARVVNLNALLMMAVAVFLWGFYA
# Protocol: (§1) From these, the inhibition mechanism was confirmed, and the inhibition constant was calculated.
# human hepatocytes = conditions: cited from earlier work
# SGLT2 [2] = molecular target: T1, SGLT2; experiment: Inhibition of [14C]AMG uptake in SGLT2-overexpressing CHO cells; assay type: cell-based; conditions: for IC50: CHO-SGLT2 cells, 10 μM [14C]AMG, 2 h, 37° C.; for IC50 ratio (SGLT1/SGLT2): ratio of SGLT1 IC50 to SGLT2 IC50
# Protocol: The evaluation was performed in the same manner as the evaluation of SGLT1 inhibition, except that an SGLT2-overexpressing cell line (CHO-SGLT2 stable cells) was used, and the inhibitory evaluation substances described below were used.
# SGLT1 = molecular target: T2, SGLT1 (Homo sapiens, UniProt P13866); experiment: SGLT1 inhibition with varied substrate AMG concentration (Dixon / L-B plot); assay type: cell-based; conditions: for Inhibition mechanism, SGLT1: CHO-SGLT1, varied AMG concentration; for Ki: from slope of L-B plot, CHO-SGLT1
# T2 construct: expressed in transfected cells
# T2 sequence (P13866 1-664): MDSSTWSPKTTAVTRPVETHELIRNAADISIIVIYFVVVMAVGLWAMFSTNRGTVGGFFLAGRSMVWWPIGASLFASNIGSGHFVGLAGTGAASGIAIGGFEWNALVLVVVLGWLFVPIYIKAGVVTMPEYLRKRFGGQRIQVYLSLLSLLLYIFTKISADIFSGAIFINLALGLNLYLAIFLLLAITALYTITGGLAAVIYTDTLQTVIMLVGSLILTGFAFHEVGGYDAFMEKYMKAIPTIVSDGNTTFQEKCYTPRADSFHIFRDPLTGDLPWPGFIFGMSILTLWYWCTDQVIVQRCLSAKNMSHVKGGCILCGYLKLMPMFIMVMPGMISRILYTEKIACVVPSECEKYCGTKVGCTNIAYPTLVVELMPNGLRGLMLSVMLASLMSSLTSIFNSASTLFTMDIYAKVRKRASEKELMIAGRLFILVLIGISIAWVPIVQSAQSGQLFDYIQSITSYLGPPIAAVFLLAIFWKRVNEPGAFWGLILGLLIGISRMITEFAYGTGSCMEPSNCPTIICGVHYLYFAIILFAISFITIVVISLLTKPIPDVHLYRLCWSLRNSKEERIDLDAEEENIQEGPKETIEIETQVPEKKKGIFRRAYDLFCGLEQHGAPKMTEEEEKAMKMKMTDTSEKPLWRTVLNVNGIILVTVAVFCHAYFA
# Protocol: as §1
SMILES,"Inhibition mechanism, SGLT2 (SGLT2 [1])",Ki (SGLT2 [1]) [nM],"Number of metabolites produced in human hepatocytes (human hepatocytes; M1, M2, M3, U1, U2)",IC50 (SGLT2 [2]) [nM],IC50 ratio (SGLT1/SGLT2) (SGLT2 [2]),"Inhibition mechanism, SGLT1 (SGLT1)",Ki (SGLT1) [nM],Enzymes catalyzing formation of the metabolite (human hepatocytes)
"OC[C@H]1O[C@@H](c2cc(Cc3ccc(C4CC4)cc3)c(Cl)c3c2CCO3)[C@H](O)[C@@H](O)[C@@H]1O [Enavogliflozin, (2S,3R,4R,5S,6R)-2-(7-chloro-6 (4-cyclopropylbenzyl)-2,3-dihydrobenzofuran-4-yl)-6-(hydroxymethyl)tetrahydro-2H-pyran-3,4,5-triol]",Competitive inhibition,0.411,five,0.34 ± 0.08,2538,Competitive inhibition,495,–
"OC[C@H]1O[C@@H](c2cc(Cc3ccc(C4CC4)cc3)c(Cl)c3c2CC(O)O3)[C@H](O)[C@@H](O)[C@@H]1O (stereo partly drawn) [M1, (2S,3R,4R,5S,6R)-2-(7-chloro-6-(4-cyclopropylbenzyl)-2-hydroxy-2,3-dihydrobenzofuran-4-yl)-6-(hydroxymethyl)tetrahydro-2H-pyran-3,4,5-triol]",Competitive inhibition,7.49,–,4.71 ± 0.69,6.0,Competitive inhibition,84.8,CYP3A4 and CYP2C19
"OC[C@H]1O[C@@H](c2cc(Cc3ccc(C4(O)CC4)cc3)c(Cl)c3c2CCO3)[C@H](O)[C@@H](O)[C@@H]1O [M2, (2S,3R,4R,5S,6R)-2-(7-chloro-6-(4-(1-hydroxycyclopropyl)benzyl)-2,3-dihydrobenzofuran-4-yl)-6-(hydroxymethyl)tetrahydro-2H-pyran-3,4,5-triol]",Competitive inhibition,6.18,–,3.02 ± 0.36,402,Competitive inhibition,1870,CYP3A4 and CYP2C19

# Source: patent publication US20260124170A1, “PHARMACEUTICAL COMPOSITION COMPRISING METABOLITE OF ENAVOGLIFLOZIN, AND USE THEREOF” (DAEWOONG PHARMACEUTICAL CO., LTD., priority 2022, published 2026)
